Assay results reported in BigSolDB 2.1.

Nc1ncnc2nc[nH]c12
solubility (mole fraction)
Conditions | 278.15 K | 283.15 K | 288.15 K | 293.15 K | 298.15 K | 303.15 K | 308.15 K | 313.15 K | 318.15 K
in DMF | 0.00192 | 0.00205 | 0.00217 | 0.00232 | 0.00246 | 0.00262 | 0.00278 | 0.00295 | 0.00312
in DMSO | – | – | – | 0.0111 | 0.0117 | 0.0124 | 0.0131 | 0.0137 | 0.0144
in NMP | 0.0095 | 0.00971 | 0.0099 | 0.0101 | 0.0103 | 0.0105 | 0.0107 | 0.0109 | 0.0112
in propylene glycol | 0.0106 | 0.0108 | 0.0109 | 0.0111 | 0.0112 | 0.0114 | 0.0115 | 0.0117 | 0.0118
in water | 5.43e-05 | 6.88e-05 | 8.54e-05 | 0.000108 | 0.000134 | 0.000171 | 0.000216 | 0.000264 | 0.000321
